# Reference: the NIST ThermoML archive (doi:10.1016/j.fluid.2015.05.026)
# Values joined by “and” are separate entries in the source; they are usually repeats but may differ in a detail not shown here. Equal values may be shown once. Numbers after ± are expanded uncertainties.
# Key:
# [1] = Liquid, Closed cell (Static) method
# [2] = molar heat capacity at constant pressure; conditions: 101.33 kPa, Liquid, Large sample (1 g) DSC
Structure (SMILES),vapor or sublimation pressure ([1]; 243.15 K),vapor or sublimation pressure ([1]; 248.15 K),vapor or sublimation pressure ([1]; 253.15 K),vapor or sublimation pressure ([1]; 258.15 K),vapor or sublimation pressure ([1]; 263.15 K),vapor or sublimation pressure ([1]; 268.15 K),vapor or sublimation pressure ([1]; 273.15 K),vapor or sublimation pressure ([1]; 278.15 K),vapor or sublimation pressure ([1]; 283.15 K),vapor or sublimation pressure ([1]; 288.15 K),vapor or sublimation pressure ([1]; 293.15 K),vapor or sublimation pressure ([1]; 298.15 K),vapor or sublimation pressure ([1]; 303.15 K),vapor or sublimation pressure ([1]; 308.15 K),molar heat capacity at constant pressure ([2]; 265 K) [J/K/mol],molar heat capacity at constant pressure ([2]; 270 K) [J/K/mol],molar heat capacity at constant pressure ([2]; 275 K) [J/K/mol],molar heat capacity at constant pressure ([2]; 280 K) [J/K/mol],molar heat capacity at constant pressure ([2]; 285 K) [J/K/mol],molar heat capacity at constant pressure ([2]; 290 K) [J/K/mol],further results
C=CC(O)CCC (configuration not stated) [1-hexen-3-ol],0.002307 ± 0.00017 kPa and 0.002309 ± 0.00017 kPa and 0.00231 ± 0.00017 kPa,0.004181 ± 0.00022 kPa,0.007373 ± 0.00033 kPa and 0.007376 ± 0.00033 kPa,0.01269 ± 0.00052 kPa and 0.0127 ± 0.0005 kPa and 0.01271 ± 0.00052 kPa,0.0214 ± 0.0007 kPa and 0.02141 ± 0.00067 kPa,0.03517 ± 0.00091 kPa and 0.03518 ± 0.00091 kPa,0.05668 ± 0.0013 kPa and 0.05669 ± 0.0013 kPa and 0.05671 ± 0.0013 kPa,0.08933 ± 0.0019 kPa and 0.08939 ± 0.0019 kPa,0.1383 ± 0.0025 kPa and 0.1384 ± 0.0025 kPa,0.2097 ± 0.0033 kPa and 0.2098 ± 0.0033 kPa,0.3122 ± 0.0046 kPa and 0.3123 ± 0.0046 kPa,0.4574 ± 0.0064 kPa and 0.4576 ± 0.0064 kPa,0.6587 ± 0.0089 kPa and 0.6589 ± 0.0089 kPa,0.9353 ± 0.012 kPa and 0.9355 ± 0.012 kPa,235.9 ± 5.8,241 ± 5.9,246 ± 6,250.8 ± 6.1,255.5 ± 6.3,260.1 ± 6.4,vapor or sublimation pressure ([1]; 238.2 K): 0.001239 ± 0.00015 kPa and 0.001245 ± 0.00015 kPa and 0.001252 ± 0.00015 kPa; vapor or sublimation pressure ([1]; 248.2 K): 0.004188 ± 0.00022 kPa and 0.004193 ± 0.00022 kPa; molar heat capacity at constant pressure ([2]; 295 K): 264.8 ± 6.5 J/K/mol; molar heat capacity at constant pressure ([2]; 300 K): 269.3 ± 6.6 J/K/mol; molar heat capacity at constant pressure ([2]; 305 K): 273.6 ± 6.7 J/K/mol; molar heat capacity at constant pressure ([2]; 310 K): 277.6 ± 6.8 J/K/mol; molar heat capacity at constant pressure ([2]; 315 K): 281.6 ± 6.9 J/K/mol; molar heat capacity at constant pressure ([2]; 320 K): 285.4 ± 7 J/K/mol; molar heat capacity at constant pressure ([2]; 325 K): 289.1 ± 7.1 J/K/mol; molar heat capacity at constant pressure ([2]; 330 K): 292.5 ± 7.2 J/K/mol; molar heat capacity at constant pressure ([2]; 335 K): 295.4 ± 7.2 J/K/mol; molar heat capacity at constant pressure ([2]; 340 K): 298.2 ± 7.3 J/K/mol; molar heat capacity at constant pressure ([2]; 345 K): 301.2 ± 7.4 J/K/mol; molar heat capacity at constant pressure ([2]; 350 K): 303.8 ± 7.4 J/K/mol; molar heat capacity at constant pressure ([2]; 354.7 K): 305.5 ± 7.5 J/K/mol
CCC/C=C/CO [(E)-2-hexen-1-ol],0.000404 ± 0.00013 kPa and 0.000406 ± 0.00013 kPa and 0.000407 ± 0.00013 kPa,0.000768 ± 0.00014 kPa and 0.000772 ± 0.00014 kPa,0.001399 ± 0.00015 kPa and 0.001397 ± 0.00015 kPa,0.002485 ± 0.00018 kPa and 0.002492 ± 0.00018 kPa and 0.002493 ± 0.00018 kPa,0.004314 ± 0.00023 kPa and 0.004317 ± 0.00023 kPa and 0.004318 ± 0.00023 kPa,0.007304 ± 0.00033 kPa and 0.00731 ± 0.00033 kPa and 0.007315 ± 0.00033 kPa,0.01214 ± 0.0005 kPa,0.01974 ± 0.00065 kPa and 0.01975 ± 0.00065 kPa,0.03147 ± 0.00086 kPa and 0.03148 ± 0.00086 kPa,0.04923 ± 0.0012 kPa and 0.04926 ± 0.0012 kPa and 0.04927 ± 0.0012 kPa,0.07568 ± 0.0017 kPa and 0.07569 ± 0.0017 kPa,0.1143 ± 0.0024 kPa,0.1699 ± 0.0029 kPa,0.2483 ± 0.004 kPa and 0.2484 ± 0.004 kPa,211.9 ± 5.2,215.1 ± 5.3,218.4 ± 5.4,221.9 ± 5.4,225.4 ± 5.5,229.2 ± 5.6,vapor or sublimation pressure ([1]; 238.15 K): 0.000207 ± 0.00013 kPa and 0.00021 ± 0.00013 kPa and 0.000211 ± 0.00013 kPa; vapor or sublimation pressure ([1]; 273.65 K): 0.01275 ± 0.00052 kPa and 0.01276 ± 0.00052 kPa; molar heat capacity at constant pressure ([2]; 295 K): 233.3 ± 5.7 J/K/mol; molar heat capacity at constant pressure ([2]; 300 K): 237.2 ± 5.8 J/K/mol; molar heat capacity at constant pressure ([2]; 305 K): 241.3 ± 5.9 J/K/mol; molar heat capacity at constant pressure ([2]; 310 K): 245.3 ± 6 J/K/mol; molar heat capacity at constant pressure ([2]; 315 K): 249.5 ± 6.1 J/K/mol; molar heat capacity at constant pressure ([2]; 320 K): 253.6 ± 6.2 J/K/mol; molar heat capacity at constant pressure ([2]; 325 K): 257.8 ± 6.3 J/K/mol; molar heat capacity at constant pressure ([2]; 330 K): 261.9 ± 6.4 J/K/mol; molar heat capacity at constant pressure ([2]; 335 K): 265.6 ± 6.5 J/K/mol; molar heat capacity at constant pressure ([2]; 340 K): 269.5 ± 6.6 J/K/mol; molar heat capacity at constant pressure ([2]; 345 K): 273.3 ± 6.7 J/K/mol; molar heat capacity at constant pressure ([2]; 350 K): 276.9 ± 6.8 J/K/mol; molar heat capacity at constant pressure ([2]; 355 K): 280.1 ± 6.9 J/K/mol
CC/C=C\CCO [(Z)-3-hexen-1-ol],0.000577 ± 0.00014 kPa and 0.000579 ± 0.00014 kPa and 0.00058 ± 0.00014 kPa,0.001062 ± 0.00014 kPa and 0.001066 ± 0.00014 kPa and 0.001069 ± 0.00014 kPa,0.001923 ± 0.00016 kPa and 0.001926 ± 0.00016 kPa and 0.001921 ± 0.00016 kPa,0.003383 ± 0.0002 kPa and 0.003393 ± 0.0002 kPa and 0.003395 ± 0.0002 kPa,0.005802 ± 0.00028 kPa and 0.005803 ± 0.00028 kPa and 0.005805 ± 0.00028 kPa,0.009727 ± 0.00041 kPa and 0.009728 ± 0.00041 kPa and 0.009737 ± 0.00041 kPa,,0.02561 ± 0.00074 kPa and 0.02562 ± 0.00074 kPa and 0.02563 ± 0.00074 kPa,0.04036 ± 0.001 kPa and 0.04037 ± 0.001 kPa,0.06241 ± 0.0014 kPa and 0.06244 ± 0.0014 kPa,0.09491 ± 0.002 kPa and 0.09494 ± 0.002 kPa and 0.09496 ± 0.002 kPa,0.142 ± 0.0025 kPa,0.2089 ± 0.0033 kPa and 0.209 ± 0.0033 kPa,0.3032 ± 0.0044 kPa and 0.3034 ± 0.0044 kPa,206.7 ± 5.1,210.2 ± 5.1,213.9 ± 5.2,217.6 ± 5.3,221.4 ± 5.4,225.4 ± 5.5,vapor or sublimation pressure ([1]; 238.15 K): 0.000301 ± 0.00013 kPa and 0.000303 ± 0.00013 kPa and 0.000304 ± 0.00013 kPa; vapor or sublimation pressure ([1]; 273.65 K): 0.01674 ± 0.00059 kPa; molar heat capacity at constant pressure ([2]; 295 K): 229.7 ± 5.6 J/K/mol; molar heat capacity at constant pressure ([2]; 300 K): 234 ± 5.7 J/K/mol; molar heat capacity at constant pressure ([2]; 305 K): 238.2 ± 5.8 J/K/mol; molar heat capacity at constant pressure ([2]; 310 K): 242.4 ± 5.9 J/K/mol; molar heat capacity at constant pressure ([2]; 315 K): 246.7 ± 6 J/K/mol; molar heat capacity at constant pressure ([2]; 320 K): 250.9 ± 6.1 J/K/mol; molar heat capacity at constant pressure ([2]; 325 K): 255.2 ± 6.3 J/K/mol; molar heat capacity at constant pressure ([2]; 330 K): 259.2 ± 6.3 J/K/mol; molar heat capacity at constant pressure ([2]; 335 K): 263.1 ± 6.4 J/K/mol; molar heat capacity at constant pressure ([2]; 340 K): 266.8 ± 6.5 J/K/mol; molar heat capacity at constant pressure ([2]; 345 K): 270.8 ± 6.6 J/K/mol; molar heat capacity at constant pressure ([2]; 350 K): 274.6 ± 6.7 J/K/mol; molar heat capacity at constant pressure ([2]; 355 K): 277.8 ± 6.8 J/K/mol
CCCCCCO [hexan-1-ol],,,0.001054 ± 0.00015 kPa and 0.001051 ± 0.00015 kPa and 0.001057 ± 0.00015 kPa,0.001918 ± 0.00016 kPa and 0.001915 ± 0.00016 kPa and 0.00192 ± 0.00016 kPa,0.003393 ± 0.0002 kPa and 0.003385 ± 0.0002 kPa,0.005838 ± 0.00028 kPa and 0.005843 ± 0.00028 kPa and 0.005839 ± 0.00028 kPa,0.009866 ± 0.00042 kPa and 0.009857 ± 0.00042 kPa,0.01629 ± 0.00058 kPa and 0.0163 ± 0.0006 kPa,0.02639 ± 0.00076 kPa and 0.02642 ± 0.00076 kPa,0.04189 ± 0.001 kPa and 0.0419 ± 0.001 kPa,0.06536 ± 0.0014 kPa and 0.06537 ± 0.0014 kPa,0.1001 ± 0.0021 kPa,0.1505 ± 0.0026 kPa,0.223 ± 0.004 kPa and 0.223 ± 0.0035 kPa and 0.2231 ± 0.0035 kPa,,,,,,,vapor or sublimation pressure ([1]; 237.95 K): 0.000143 ± 0.00013 kPa; vapor or sublimation pressure ([1]; 238 K): 0.000143 ± 0.00013 kPa and 0.000145 ± 0.00013 kPa; vapor or sublimation pressure ([1]; 243.2 K): 0.000296 ± 0.00013 kPa; vapor or sublimation pressure ([1]; 243.25 K): 0.000293 ± 0.00013 kPa; vapor or sublimation pressure ([1]; 248.2 K): 0.000569 ± 0.00014 kPa and 0.00056 ± 0.00014 kPa and 0.000564 ± 0.00014 kPa; vapor or sublimation pressure ([1]; 273.65 K): 0.01039 ± 0.00044 kPa
